These are literature values, as cited in publication PMC11822664, “First‐In‐Human Dose Finding Study of Venadaparib (IDX‐1197), a Potent and Selective PARP Inhibitor, in Patients With Advanced Solid Tumors” (Cancer Medicine, 2025).

The subject of one data set is PARP. The settings on record: olaparib phase I trial ref 22; cited from earlier work.
Data set [1] relates to patients with advanced ovarian cancer. To be noted: cited from earlier work.
Setting [2] is: advanced ovarian cancer with ≥ 2 prior systemic treatments ref 33.

For `O=C(c1cc(Cc2n[nH]c(=O)c3ccccc23)ccc1F)N1CCN(C(=O)C2CC2)CC1` [olaparib], the “Dose from which clinical benefit started” value with PARP is recorded as ≥ 100 mg twice daily (BID). Moreover, in data set [1] (advanced ovarian cancer ref 33), the Anemia incidence is recorded as 46% and the Neutropenia incidence was 24%. In addition, in data set [1] (setting [2]), the Nausea incidence entry is given as “approximately 76%” and the Vomiting incidence is given as roughly 40%.
